Data published in patent publication US20140018375A1, “BIOLOGICAL MARKERS PREDICTIVE OF ANTI-CANCER RESPONSE TO EPIDERMAL GROWTH FACTOR RECEPTOR KINASE INHIBITORS” (priority 2005, published 2014).
Entries after “also recorded” stand apart in the source; their conditions may differ. Like-named read-outs stand apart in the source and are kept apart here.

Tests used:
H292 = test: Cell-Titer Glo cell viability assay, H292; type: cell-based, human
Method: (§1) On day 1, NSCLC cells were plated 3-5×10^4 cells/well in 96 well plates in their normal serum-containing media. […] Manufacturers instructions were followed for the assay. Experiments were conducted in triplicate to at least an n=3. Data was normalized as a percentage inhibition compared to DMSO only control wells and concentration-response analysis was performed using Prizm graphing software.
(§2) The concentration response curves were analyzed in two ways.

H322 = test: Cell-Titer Glo cell viability assay, H322; type: cell-based, human
Method: as §1, §2

H358 = test: Cell-Titer Glo cell viability assay, H358; type: cell-based, human
Method: as §1, §2

H441 = test: Cell-Titer Glo cell viability assay, H441; type: cell-based, human
Method: as §1, §2

A549 = test: Cell-Titer Glo cell viability assay, A549; type: cell-based, human
Method: as §1, §2

H460 = test: Cell-Titer Glo cell viability assay, H460; type: cell-based, human; conditions: for EC50: Homo sapiens
Method: as §1, §2

Calu6 = test: Cell-Titer Glo cell viability assay, Calu6; type: cell-based, human; conditions: for EC50: Homo sapiens
Method: as §1, §2

H1703 = test: Cell-Titer Glo cell viability assay, H1703; type: cell-based, human; conditions: for EC50: Homo sapiens
Method: as §1, §2

SW1573 = test: Cell-Titer Glo cell viability assay, SW1573; type: cell-based, human
Method: as §1, §2

H292 xenograft = test: NSCLC xenograft tumor growth inhibition, H292; type: in vivo, mouse; conditions: oral gavage once a day for 14 days
Method: (§3) Female CD-1 nu/nu mice (Charles River Laboratories) were implanted with harvested NSCLC tumor cells in a single subcutaneous site on the flank of the mice in the axillary region. Tumors were allowed to grow to 200±50 mm^3, at which time the animals were sorted into treatment groups of 8 animals per group based on weight (±1 g body weight) and tattooed on the tail for permanent identification. Tumor volumes and body weights were determined twice weekly. The tumor volume was determined by measuring in two directions with vernier calipers and calculated using the formula: Tumor volume=(length×width^2)/2. The data were plotted as the % change in mean values of tumor volume and body weight for each group. […]. Tumor growth inhibition studies were dosed by oral gavage once a day for 14 days. Pharmacodynamic studies were dosed by oral gavage for 1-3 days with tumors from 4 control and 4 TARCEVA™ treated animals harvested and snap frozen in liquid nitrogen 4 hours after dosing on Days 1, 2 and 3.

H358 xenograft = test: NSCLC xenograft tumor growth inhibition, H358; type: in vivo, mouse; conditions: oral gavage once a day for 14 days
Method: as §3

H441 xenograft = test: NSCLC xenograft tumor growth inhibition, H441; type: in vivo, mouse; conditions: oral gavage once a day for 14 days
Method: as §3

A549 xenograft = test: NSCLC xenograft tumor growth inhibition, A549; type: in vivo, mouse; conditions: oral gavage once a day for 14 days
Method: as §3

H460 xenograft = test: NSCLC xenograft tumor growth inhibition, H460; type: in vivo, mouse; conditions: oral gavage once a day for 14 days
Method: as §3

Calu6 xenograft = test: NSCLC xenograft tumor growth inhibition, Calu6; type: in vivo, mouse; conditions: oral gavage once a day for 14 days
Method: as §3

NSCLC cells = test: anti-phosphotyrosine capture and LC-MS/MS (iTRAQ) after erlotinib exposure; type: cell-based, human
Method: Anti-phosphotyrosine immunoaffinity resins were prepared by covalent coupling to a solid support by standard methods. Freshly prepared immunoaffinity resins were used for each biological experiment to maximize binding and reduce carryover. Briefly, anti-phosphotyrosine antibodies were crosslinked to solid-support and non-covalently bound IgG removed by low pH elution. […] Proteins isolated by anti-phosphotyrosine affinity selection were measured by iTRAQ labeling of tryptic peptides as previously described (Ross et al, (2004) Mol Cell Proteomics 3(12) 1154-1169; Haley et al., 2004). Peptide masses and sequence information were determined by electrospray LC-MS/MS and database searching. Peptides with confidence levels of >=90% with scores of >=20 were considered, after which spectra were inspected manually. […]. Proteins were clustered by temporal log2 protein expression ratios using Euclidian hierarchical methods and self-organizing maps.
Proteins associated with survival signaling and epithelial-mesenchymal cell phenotypes were isolated and measured using multiple experimental approaches, including mass spectrometry. Individual protein abundance, or extent of phosphorylation on tyrosine residues, was compared between different NSCLC tumor lines. Mass spectrometry approaches additionally included cellular fractionation, phosphotyrosine protein-capture and phosphopeptide-capture using four NSCLC model cell lines. The NSCLC lines were chosen to reflect a range of sensitivities to pharmacological EGFR inhibition both in vitro and in xenografts. These NSCLC lines also span both epithelial and mesenchymal-like tumor phenotypes arising from EMT-like transitions occurring during tumor progression. Two MS quantitation approaches were pursued. First, between-cell comparisons were performed where membrane-particulate and cytosolic fractions were isolated and differences in protein abundance measured. In both cases the iTRAQ peptide labeling method was used to allow relative quantitation of proteins isolated under the different biological conditions. […]. Protein samples were proteolytically cleaved with trypsin, separately labeled with isobaric stable isotope mass labels (iTRAQ; Ross et al., 2005; Petti et al. 2005), combined and subjected to LC-MS/MS. Protein identification criteria conformed to the guidelines proposed by Bradshaw et al. (Bradshaw R. A., Burlingame A. L., Carr S., and Aebersold R. (2006) Mol Cell Proteomics 5:787-788).

BxPC3 = test: growth inhibition of pancreatic cell line in vitro, BxPC3; type: cell-based
Excerpt: (§4) We next extended these studies to ask whether these observations would be applicable to other cancer cell types.

MiaPaca2 = test: growth inhibition of pancreatic cell line in vitro, MiaPaca2; type: cell-based
Excerpt: as §4

## C#Cc1cccc(Nc2ncnc3cc(OCCOC)c(OCCOC)cc23)c1 [erlotinib, [6,7-bis(2-methoxyethoxy)-4-quinazolin-4-yl]-(3-ethynylphenyl)amine]
H292
  Max. Inhibition (%): 69%
H292; H292, in vitro and in xenografts
  Classification of sensitivity to erlotinib-mediated growth inhibition: Sensitive
H292; Homo sapiens, NCI-H292, 72 h, read-out: EC50 Half Maximal
  EC50: 0.1 µM
H322
  Max. Inhibition (%): 80%
H322; H322
  Classification of sensitivity to erlotinib-mediated growth inhibition: Sensitive
H322; Homo sapiens, NCI-H322, 72 h, read-out: EC50 Half Maximal
  EC50: 0.4 µM
H358
  Max. Inhibition (%): 72%
H358; H358, in vitro and in xenografts
  Classification of sensitivity to erlotinib-mediated growth inhibition: Sensitive
H358; Homo sapiens, NCI-H358, 72 h, read-out: EC50 Half Maximal
  EC50: 0.6 µM
H441
  Max. Inhibition (%): 55%
H441; H441, in vitro and in xenografts
  Classification of sensitivity to erlotinib-mediated growth inhibition: Sensitive; also recorded: intermediate
H441; Homo sapiens, NCI-H441, 72 h, read-out: EC50 Half Maximal
  EC50: 2 µM
A549
  Max. Inhibition (%): 30%
A549; A549, in vitro and in xenografts
  Classification of sensitivity to erlotinib-mediated growth inhibition: intermediate sensitivity
A549; Homo sapiens, A549, 72 h, read-out: EC50 Half Maximal
  EC50: 5 µM
H460
  Max. Inhibition (%): 30%
H460; H460, in vitro and in xenografts
  Classification of sensitivity to erlotinib-mediated growth inhibition: relatively insensitive
H460; NCI-H460, 72 h, read-out: EC50 Half Maximal
  EC50: 5 µM
H460; NCI-H460, read-out: EC50, growth inhibition in vitro
  EC50: > 10 µM
Calu6
  Max. Inhibition (%): 46%
Calu6; Calu6, in vitro and in xenografts
  Classification of sensitivity to erlotinib-mediated growth inhibition: relatively insensitive
Calu6; Calu-6, 72 h, read-out: EC50 Half Maximal
  EC50: > 10 µM
Calu6; Calu-6, read-out: EC50, growth inhibition in vitro
  EC50: > 10 µM
H1703
  Max. Inhibition (%): 30%
H1703; H1703
  Classification of sensitivity to erlotinib-mediated growth inhibition: relatively insensitive
H1703; NCI-H1703, 72 h, read-out: EC50 Half Maximal
  EC50: 7 µM
H1703; NCI-H1703, read-out: EC50, growth inhibition in vitro
  EC50: > 10 µM
SW1573
  Max. Inhibition (%): 25%
SW1573; Homo sapiens, SW1573, 72 h, read-out: EC50 Half Maximal
  EC50: 9 µM
SW1573; SW1573
  Classification of sensitivity to erlotinib-mediated growth inhibition: relatively insensitive
H292 xenograft
  % TGI Day 15: 85%
H358 xenograft
  % TGI Day 15: 25%
H441 xenograft
  % TGI Day 15: 60%
A549 xenograft
  % TGI Day 15: 49%
H460 xenograft
  % TGI Day 15: 6%
Calu6 xenograft
  % TGI Day 15: 0%
NSCLC cells; H1703 cells, 1, 4 and 24 hours
  phosphocapture of the p21-activated kinase PAK2: stimulated at all time points
NSCLC cells; cells with an epithelial phenotype, within 1 hour of erlotinib exposure (1 μM)
  regulation of Actin-like protein-6A and β-actin: upregulation
NSCLC cells; mesenchymal-like NSCLC cells, within 1 hour of erlotinib exposure (1 μM)
  regulation of α- and γ-actins and vimentin phosphoproteins: Down regulation
NSCLC cells; mesenchymal-like cells
  phosphocapture of Rho-GEF7: significant erlotinib-dependent increase
NSCLC cells; primarily associated with an epithelial cell state
  tyrosine phosphorylation for Erk2, ubiquitin and the tyrosine phosphatases SHP-2 and BDP-18: downregulation
BxPC3
  sensitivity to growth inhibition by erlotinib: sensitive
MiaPaca2
  sensitivity to growth inhibition by erlotinib: relatively insensitive
